Reference: ChEMBL document CHEMBL1157335, “Aromatic constituents of Uvaria grandiflora” (J Nat Prod, 2006)
In brackets after ≈: the same amount, converted by molar mass.

Test system: Leishmania donovani
Assay: Antileishmanial activity against Leishmania donovani promastigotes after 48 hrs by alamar blue assay
Type: functional, organism-based

SMILES | IC90 | IC50
C[C@@H]1[C@H](O)[C@@H](C)/C=C/C=C/C=C/C=C/C=C/C=C/C=C/[C@H](O[C@@H]2O[C@H](C)[C@@H](O)[C@H](N)[C@@H]2O)C[C@@H]2O[C@](O)(C[C@@H](O)C[C@@H](O)[C@H](O)CC[C@@H](O)C[C@@H](O)CC(=O)O[C@H]1C)C[C@H](O)[C@H]2C(=O)O [AMPHOTERICIN B] | 0.34 µg/mL (≈ 0.368 µM) | –
CC(=O)O[C@H]1C(=O)C=COC=C1COC(=O)c1ccccc1 [GRANDIUVARONE A] | 1.5 µg/mL (≈ 4.96 µM) | 0.7 µg/mL (≈ 2.32 µM)
N=C(N)c1ccc(OCCCCCOc2ccc(C(=N)N)cc2)cc1 [PENTAMIDINE] | 6.6 µg/mL (≈ 19.4 µM) | –
